# Where two headings read alike, the source gives them in different places. Bridge positions count the residues as written; N and C are the ends. Peptide text beside a SMILES is read from it.
# Key:
# Kv1.3 Q355A mutant = assay: Whole-cell patch clamp, Kv1.3 alanine mutant; assay type: cell-based, human; conditions: 100 nM MrVIII, +30 mV; n = 4–7
# Experimental: (§1) MrVIII inhibits Kv1 channels by stabilizing the voltage sensor in its resting state. […] To investigate this hypothesis, we constructed a series of alanine mutants in the S3-S4 region of the Kv1.3 channel, covering residues I336 to L363, to identify critical interactions between the peptide and the channel (Fig. 6A). […] For the remaining mutants that retained functional current expression, we evaluated the inhibitory activity of 100 nM MrVIII. […] The lack of conserved multiple interaction sites may explain the absence of activity on other Kv subfamily channels (Fig. S3). In summary, this study identified key amino acid residues in the S3-S4 region of the Kv1.3 channel that interact with MrVIII, providing a foundation for further exploration into the peptide's mechanism of action.
# (§2) The cDNA of hKv1.1, hKv1.2, hKv1.3, rKv1.4, hKv1.5, mKv1.6, and hKv1.7 were subcloned into mammalian expression vectors pcDNA3.1 or pCMV-blank vectors, as well as other plasmids described previously ([35]). Channel mutants were generated by site-directed mutations. Briefly, the parental channel plasmid was amplified using a pair of oppositely directed primers harboring the designed mutation site, with KOD Fx (TOYOBO Co, Ltd). The resulting PCR mix was treated with FastDigest DpnI (Thermo Fisher Scientific) to remove the methylated template. Ten microliters of the digested product was then used to transform 100 μl E. coli DH5α competent cells. Transformants were randomly picked and sequenced to confirm the presence of the intended mutation.
# (§3) CHO-K1 cells were selected for expressing Kv channels due to their lack of endogenous Kv channels, while HEK293 or ND7/23 cells were used for Nav and Cav channel expression. CHO-K1 cells were cultured in a Dulbecco's modified Eagle's medium/Ham's F-12 nutrient mixture (DMEM-F12) medium, and HEK293T and ND7/23 cells in DMEM medium, all supplemented with 10% fetal bovine serum and 1% penicillin-streptomycin (all from Gibco, Thermo Fisher Scientific, Inc) under standard conditions (37 °C, 5% CO2, and saturated humidity). These cell lines were purchased from Stem Cell Bank, Chinese Academy of Sciences. Channel plasmids were cotransfected with pEGFP-N1 (encoding GFP) into the respective cells using lipofectamine 2000, following the manufacturer's instructions (Invitrogen, Thermo Fisher Scientific, Inc.). Nav1.9-GFP plasmid was transfected into ND7/23 using the X-tremeGENE HP DNA Transfection Reagent (Roche). After 4 to 6 h transfection, cells were seeded onto poly-lysine–coated coverslips, and 24 to 36 h later, transfected cells were ready for patch-clamp analysis.
# (§4) Patch clamp experiments were conducted using an electrophysiology platform comprising a MultiClamp 700B amplifier and an Axon Digidata 1550 AD/DA convertor (Axon Instruments). Data acquisition was performed with pClamp 10.5 software (Axon Instruments). All experiments were performed at room temperature.
# (§5) For Kv current recordings, the bath solution contained (in mM) the following: 140 NaCl, 5 KCl, 1 MgCl2, 2 CaCl2, 10 glucose, and 10 Hepes (pH 7.3, adjusted with NaOH), and the pipette solution contained (in mM) the following: 140 KCl, 2.5 MgCl2, 11 EGTA, and 10 Hepes (pH 7.3, adjusted with KOH). Series resistance was maintained below 10 MΩ and compensated to 80%. Concentration–response curves were fitted by the Hill equation to determine the toxin's potency. Whole cell conductance (G) at each depolarizing voltage (V) was determined using the equation: G = I/(V−Vrev), where I is the current amplitude, and Vrev is the reversal potential. The reversal potential for K^+ current was estimated to be −85.6 mV using the Nernst equation. G-V curves were obtained by plotting the normalized conductance as a function of V and fitted by the Boltzmann equation: y = 1/(1+ exp((Va-V)/k)), which Va is the midpoint voltage, V is the test potential, and k is the slope factor. The steady-state fast inactivation of Kv1.3 was measured using a two-pulses protocol. […]
# Kv1.3 G344A mutant = assay: Whole-cell patch clamp, Kv1.3 alanine mutant; assay type: cell-based, human; conditions: 100 nM MrVIII, +30 mV; n = 4–7
# Experimental: as §1, §2, §3, §4, §5
# Kv1.3 E349A mutant = assay: Whole-cell patch clamp, Kv1.3 alanine mutant; assay type: cell-based, human; conditions: 100 nM MrVIII, +30 mV; n = 4–7
# Experimental: as §1, §2, §3, §4, §5
# Kv1.3 S359A mutant = assay: Whole-cell patch clamp, Kv1.3 alanine mutant; assay type: cell-based, human; conditions: 100 nM MrVIII, +30 mV; n = 4–7
# Experimental: as §1, §2, §3, §4, §5
# Kv1.3 T345A mutant = assay: Whole-cell patch clamp, Kv1.3 alanine mutant; assay type: cell-based, human; conditions: 100 nM MrVIII, +30 mV; n = 4–7
# Experimental: as §1, §2, §3, §4, §5
# Kv1.3/Y339A = assay: Whole-cell patch clamp, Kv1.3 alanine mutant; assay type: cell-based, human
# Experimental: as §1, §2, §3, §4, §5
# [1] = molecular target: T1, Kv1.7/I386C mutant (Kv1.7∗) (Homo sapiens, UniProt Q96RP8, I386C); assay: Gating-current recording, Kv1.7* in HEK293T cells; assay type: cell-based; conditions: for inhibition at 10 µM: HEK-293T
# T1 construct: expressed in transfected cells; host or cells: HEK293T
# Experimental: as §2, §3, §4
# Gating currents were recorded by transfecting HEK293T cells with a saturating dose of plasmid to ensure maximal channel expression. The Kv1.3/I472C and Kv1.7/I386C mutants were used to record the IgOFF, minimizing slow voltage sensor return as reported in previous studies ([28]). The bath solution contained (in mM) the following: 140 NMDG, 50 Hepes, 2 CaCl2, 2 MgCl2, 0.1 EDTA, and 0.01 CsCl (pH 7.3, adjusted with methanesulfonic acid), and the pipette solution contained (in mM) the following: 140 NMDG, 1 NMDG-Cl, 50 HF, 5 EGTA, and 50 Hepes (pH 7.3, adjusted with methanesulfonic acid). Gating charge movement (Q) was determined by integrating the area under the IgON and IgOFF traces, representing voltage sensor movement in response to depolarizing pulses. The data were normalized and plotted against voltage to generate Q-V curves, which were fitted using a Boltzmann function to estimate the voltage dependence of charge movement.
# T1 sequence (Q96RP8 whole entry I386C): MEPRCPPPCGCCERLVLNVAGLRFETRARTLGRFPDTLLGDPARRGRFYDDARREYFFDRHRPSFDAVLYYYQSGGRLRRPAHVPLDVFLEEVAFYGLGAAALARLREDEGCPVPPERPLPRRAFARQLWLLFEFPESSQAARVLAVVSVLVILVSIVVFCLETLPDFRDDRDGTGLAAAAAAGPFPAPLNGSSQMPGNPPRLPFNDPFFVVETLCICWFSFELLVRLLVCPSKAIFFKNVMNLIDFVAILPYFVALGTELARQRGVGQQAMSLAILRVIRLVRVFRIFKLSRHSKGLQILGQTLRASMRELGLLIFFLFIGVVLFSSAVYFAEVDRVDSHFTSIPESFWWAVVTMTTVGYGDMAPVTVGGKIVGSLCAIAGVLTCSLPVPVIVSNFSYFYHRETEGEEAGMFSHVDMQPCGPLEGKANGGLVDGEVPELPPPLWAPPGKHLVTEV
structure (smiles),measurement,setting,value
"CC[C@H](C)[C@@H]1NC(=O)[C@H](Cc2ccc(O)cc2)NC(=O)[C@H](CCC(N)=O)NC(=O)[C@@H]2CCCN2C(=O)[C@@H]2CSSC[C@H](NC(=O)[C@H](C)NC(=O)[C@H](CO)NC(=O)[C@H](CCC(=O)O)NC(=O)[C@H](CCC(=O)O)NC(=O)[C@@H](N)[C@@H](C)O)C(=O)NCC(=O)NCC(=O)N[C@@H](Cc3ccccc3)C(=O)N[C@@H](CC(N)=O)C(=O)N[C@@H](C)C(=O)N[C@@H](CCCNC(=N)N)C(=O)N[C@H]3CSSC[C@H](NC1=O)C(=O)N[C@@H](CCCCN)C(=O)NCC(=O)N[C@@H](Cc1c[nH]c4ccccc14)C(=O)N[C@@H](CCCNC(=N)N)C(=O)N[C@@H]([C@@H](C)O)C(=O)N[C@@H](CCCCN)C(=O)N[C@@H](CCCNC(=N)N)C(=O)N[C@H](C(=O)N[C@@H](CC(C)C)C(=O)N[C@@H](CC(N)=O)C(=O)N1CCC[C@H]1C(=O)O)CSSC[C@H](NC(=O)[C@H](CCCCN)NC(=O)[C@H](Cc1c[nH]cn1)NC(=O)[C@H](CC(C)C)NC(=O)[C@@H]1CCCN1C3=O)C(=O)N2 [MrVIII] (H-TEESACGGFNARCPLHKCCPQYICKGWRTKRCLNP-OH; disulfide 6-19, 13-24, 18-32; N-terminus and C-terminus assumed)","reduction in inhibitory potency vs WT Kv1.3, Q355A",Kv1.3 Q355A mutant,more than 5 fold
same,"reduction in inhibitory potency vs WT Kv1.3, G344A",Kv1.3 G344A mutant,more than 5 fold
same,"reduction in inhibitory potency vs WT Kv1.3, E349A",Kv1.3 E349A mutant,more than 5 fold
same,"reduction in inhibitory potency vs WT Kv1.3, S359A",Kv1.3 S359A mutant,more than 5 fold
same,"reduction in inhibitory potency vs WT Kv1.3, T345A",Kv1.3 T345A mutant,more than 5 fold
same,"decrease of inhibitory potency vs WT Kv1.3, Y339A","Kv1.3/Y339A; 100 nM MrVIII on mutant compared with 10 nM on WT Kv1.3, +30 mV, n = 4–7",more than 10 fold
same,inhibition of peak current of Kv1.3/Y339A,"Kv1.3/Y339A; 10 μM MrVIII, +30 mV, mean ± SD, n = 4–6, SD",24.9 ± 6.0%
same,Va of Q-V curve of Kv1.7∗ after toxin,"[1]; 500 nM MrVIII, before toxin −6.4 ± 2.9 mV, mean ± SD, n = 5, SD",−4.3 ± 3.8 mV
same,effect on IgON of Kv1.7∗,"[1]; 10 μM MrVIII, 500 ms depolarization",completely inhibited
same,IC50,"[1]; +30 mV for 50 ms, held at −100 mV, HEK293T, mean ± SD, n = 11, SD, read-out: IC50, inhibition of IgON current of Kv1.7∗",214 ± 91.8 nM
same,inhibition at 10 µM,"[1]; 10 μM MrVIII, 50 ms depolarization at +30 mV, mean ± SD, n = 11, SD, read-out: inhibition of IgOFF of Kv1.7∗",~74.1%
same,inhibition at 10 µM,"[1]; 10 μM MrVIII, 500 ms depolarization, mean ± SD, n = 5, SD, read-out: inhibition rate of IgOFF of Kv1.7∗",13.1 ± 5.5%
